Here are results for two molecules from patent US6376469B1, “Crystalline amrubicin hydrochloride” (Sumitomo Pharmaceuticals Company, Limited, priority 1997, dated 2002).

The structures appear in SMILES notation.

The data set in a line: Preservation stability of crystalline amrubicin hydrochlorides (80° C., 24 hours, HPLC). Particulars: for remaining amount (%): crystals kept at 80° C. for 24 hours, measured by high performance liquid chromatography, amount at the starting time defined as 100%, hydrochloride. The data set is classed as physicochemical. On the procedure: Preservation stability of crystalline amrubicin hydrochlorides
β-Type crystalline amrubicin hydrochloride obtained in Example 1 and α-type crystalline amrubicin hydrochloride obtained in Reference example 1 were each kept at a temperature of 80° C. for 24 hours. Thereafter, the remaining amount of crystals were measured using high performance liquid chromatography. The amount at the starting time is defined as 100%.

In the case of `CC(=O)[C@]1(N)Cc2c(O)c3c(c(O)c2[C@@H](OC2CC(O)C(O)CO2)C1)C(=O)c1ccccc1C3=O.Cl` (stereo partly drawn) [α-type crystalline, (7S,9S)-9-acetyl-9-amino-7-[(2-deoxy-β-D-erythro-pentapyranosyl)oxy]-7,8,9, 10-tetrahydro-6,11-dihydroxy-5,12-naphthacenedione hydrochloride, reference compound], the “remaining amount (%)” value worked out at 92.2%.
Consider `CC(=O)[C@]1(N)Cc2c(O)c3c(c(O)c2[C@@H](OC2CC(O)C(O)CO2)C1)C(=O)c1ccccc1C3=O.Cl` (stereo partly drawn) [β-type crystalline, (7S,9S)-9-acetyl-9-amino-7-[(2-deoxy-β-D-erythro-pentapyranosyl)oxy]-7,8,9, 10-tetrahydro-6,11-dihydroxy-5,12-naphthacenedione hydrochloride], for which the “remaining amount (%)” value stood at 100.4%. For the same molecule, under “conclusion from Table 2, 80° C. for 24 hours”, the “thermal stability (comparison of crystal forms)” value was “higher thermal stability than α-type crystalline amrubicin hydrochloride”.
